Test results reported in patent US20260250325A1, “Antiviral Polypeptide Membrane Fusion Inhibitor, and Preparation Method and Application Thereof” (priority 2025, published 2026).
Where a SMILES comes first, the peptide text is derived from it. The star is where a group is joined. Succinyl(4-O-cholesteryl) = CC(C)CCC[C@@H](C)[C@H]1CC[C@H]2[C@@H]3CC=C4C[C@@H](OC(=O)CCC(=O)*)CC[C@]4(C)[C@H]3CC[C@]12C

Assays:
RSV A long virus strain = format: cell-based; details: RSV A long virus strain, HEp-2 cells, plaque reduction, 1 day; read-out: IC50
In short: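 HEp-2 cells (30000/well) infected with 100 PFU virus premixed 1 h with compound (8 concentrations, duplicate); after 2 h adsorption, cultured 1 day at 37 °C under 0.8% CMC overlay with compound. Plaques immunostained (RSV antibody, TrueBlue) and counted; IC50 and CC50 by non-linear fitting of % inhibition versus virus and cell controls.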

RSV A2 virus strain = test: Cotton rat RSV A2 challenge protection, lung nucleic acid load by RT-qPCR; format: in vivo; details: cotton rats; for Nucleic acid load RT-qPCR detection results Log10 mean (copy number/gram of lung tissue): tracheal nebulization 1 mg/kg QD for 5 days, lung collected 2 h after final administration on Day 4; for effect on viral titer in lung tissue (in words): tracheal nebulization once daily for 5 days
Source text: Female cotton rats were from Shanghai Yishang Biotechnology Co., Ltd. The RSV A2 virus strain was from the ATCC, with a catalog number VR-1540. RT-qPCR primer+probe primer were supplied by Qingke Biotechnology Co., Ltd, with batch number TSP20241227-025-00187. The RT-qPCR standard was provided by Vazyme, with batch number 20241008.
Female cotton rats (6-8 weeks old) were grouped based on body weight (n=5). All animals were intranasally challenged with RSV on Day 0 at a challenge dosage of […] pfu (50 μL) per animal. Administration began 1 h after Day 0 challenge; the polypeptide sample, positive control, and solvent control were administered via tracheal nebulization once daily for 5 consecutive days. Lung tissue was collected from all animals 2 h after the final administration on Day 4. Left lung tissue (including partial trachea) was rapidly frozen in a virus protection solution with a 10-fold volume and stored below −70° C.; and the viral titer was detected with RT-qPCR.
First, sample homogenization and lung tissue RNA extraction were performed, and the supernatant was taken from the tissue sample that was homogenized using a tissue homogenizer (maintaining a low-temperature environment). The approximately 100 μL of the homogenate supernatant was taken, and total tissue RNA was extracted by using a VeZol reagent-chloroform-water phase-magnetic bead method, and dissolved in RNase-free water. The RT-qPCR reaction system was prepared as follows: a one-step RT-qPCR reaction system was prepared by using an RNA template, a probe, a primer pair, an RT-qPCR buffer, and the RNase-free water; each sample was tested in duplicated wells, with each well containing 20 μL of the one-step RT-qPCR reaction system; a quantitative standard curve well (RSV A2 N gene full-length plasmid), a positive quality control well, and a negative quality control well were arranged at the same time. Then, amplification programs were set according to reverse transcription, pre-denaturation, and cyclic amplification, and amplification data was collected by using a real-time fluorescence quantification PCR instrument, and a mean CT value for duplicated wells was calculated. The CT value from the test results for each sample was substituted into a quantitative standard curve to calculate a copy number. A calculation formula for RSV viral load (copy number/gram of lung tissue) was: sample viral load (copy number/gram of lung tissue)=copy number/relative tissue input (g).
One hour after RSV A2 challenge in cotton rats, compounds 13, 14, 17, 19, 20, 21, 26, 27, 28, and 40 were administered via tracheal nebulization once daily for 5 consecutive days; and 2 h after the final administration, lung tissue was collected from all groups for viral titer detection, and results were shown in Table 4.

With “Ac-FDEEISQVNEKINQSLAFIRKSDELLHNVNAGKSTTEAAAKK(Succinyl(4-O-cholesteryl))-NH2 [Compound 26]” the IC50 (RSV A long virus strain) was 12.8 nM, the “Nucleic acid load RT-qPCR detection results Log10 mean (copy number/gram of lung tissue)” value (RSV A2 virus strain) was 7.78 Log10 copy number/gram of lung and the “effect on viral titer in lung tissue (in words)” value (from here on “effect on viral titer”) (RSV A2 virus strain) was “significantly reduce the viral titer in lung tissue”.

With `CC[C@H](C)[C@H](NC(=O)[C@H](CCCCN)NC(=O)[C@H](CCCCN)NC(=O)[C@H](CC(C)C)NC(=O)[C@H](CO)NC(=O)[C@H](CCC(=O)O)NC(=O)[C@H](CCC(=O)O)NC(=O)[C@@H](NC(=O)[C@H](CCCCN)NC(=O)[C@H](CCCCN)NC(=O)[C@H](CC(N)=O)NC(=O)[C@@H](NC(=O)[C@H](CCC(=O)O)NC(=O)[C@H](CCC(=O)O)NC(=O)[C@@H](NC(=O)[C@H](CCCCN)NC(=O)[C@H](CCCCN)NC(=O)[C@H](CC(=O)O)NC(=O)[C@H](Cc1ccccc1)NC(=O)[C@H](CCC(=O)O)NC(=O)[C@H](CC(=O)O)NC(=O)[C@H](CO)NC(C)=O)[C@@H](C)CC)C(C)C)[C@@H](C)CC)C(=O)N[C@@H](CCC(=O)O)C(=O)N[C@@H](CCC(=O)O)C(=O)N[C@@H](CO)C(=O)N[C@@H](CC(=O)O)C(=O)N[C@@H](CCCCN)C(=O)N[C@@H](CCCCN)C(=O)N[C@@H](CC(C)C)C(=O)NCC(=O)N[C@@H](CO)C(=O)NCC(=O)N[C@@H](CO)C(=O)NCC(=O)N[C@@H](CCCCNC(=O)CCC(=O)O[C@H]1CC[C@@]2(C)C(=CC[C@H]3[C@@H]4CC[C@H]([C@H](C)CCCC(C)C)[C@@]4(C)CC[C@@H]32)C1)C(N)=O` [Compound 20] (Ac-SDEFDKKIEEVNKKIEESLKKIEESDKKLGSGSGK(Succinyl(4-O-cholesteryl))-NH2) the IC50 (RSV A long virus strain) was 19.8 nM, the “Nucleic acid load RT-qPCR detection results Log10 mean (copy number/gram of lung tissue)” value (RSV A2 virus strain) was 8.55 Log10 copy number/gram of lung and the “effect on viral titer” value (RSV A2 virus strain) was “significantly reduce the viral titer in lung tissue”.

For “Ac-WDEFDASISQVNEKINQSLEEIRKSDELLHNVNAGLGSGSGK(Succinyl(4-O-cholesteryl))-NH2 [Compound 27]”, the IC50 (RSV A long virus strain) was 25.7 nM, the “Nucleic acid load RT-qPCR detection results Log10 mean (copy number/gram of lung tissue)” value (RSV A2 virus strain) was 8.86 Log10 copy number/gram of lung and the “effect on viral titer” value (RSV A2 virus strain) was “significantly reduce the viral titer in lung tissue”.

For `CC[C@H](C)[C@H](NC(=O)[C@H](CCCCN)NC(=O)[C@H](CCCCN)NC(=O)[C@H](CC(C)C)NC(=O)[C@H](CO)NC(=O)[C@H](CCC(=O)O)NC(=O)[C@H](CCC(=O)O)NC(=O)[C@@H](NC(=O)[C@H](CCCCN)NC(=O)[C@H](CCCCN)NC(=O)[C@H](CC(N)=O)NC(=O)[C@@H](NC(=O)[C@H](CCC(=O)O)NC(=O)[C@H](CCC(=O)O)NC(=O)[C@@H](NC(=O)[C@H](CCCCN)NC(=O)[C@H](CCCCN)NC(=O)[C@H](CC(=O)O)NC(=O)[C@H](Cc1ccccc1)NC(=O)[C@H](CCC(=O)O)NC(=O)[C@H](CC(=O)O)NC(=O)[C@H](Cc1c[nH]c2ccccc12)NC(C)=O)[C@@H](C)CC)C(C)C)[C@@H](C)CC)C(=O)N[C@@H](CCC(=O)O)C(=O)N[C@@H](CCC(=O)O)C(=O)N[C@@H](CO)C(=O)N[C@@H](CC(=O)O)C(=O)N[C@@H](CCCCN)C(=O)N[C@@H](CCCCN)C(=O)N[C@@H](CC(C)C)C(=O)N[C@@H](CCC(=O)O)C(=O)N[C@@H](C)C(=O)N[C@@H](C)C(=O)N[C@@H](C)C(=O)N[C@@H](CCCCN)C(=O)N[C@@H](CCCCNC(=O)CCC(=O)O[C@H]1CC[C@@]2(C)C(=CC[C@H]3[C@@H]4CC[C@H]([C@H](C)CCCC(C)C)[C@@]4(C)CC[C@@H]32)C1)C(N)=O` [Compound 13] (Ac-WDEFDKKIEEVNKKIEESLKKIEESDKKLEAAAKK(Succinyl(4-O-cholesteryl))-NH2), the IC50 (RSV A long virus strain) was 13 nM, the “Nucleic acid load RT-qPCR detection results Log10 mean (copy number/gram of lung tissue)” value (RSV A2 virus strain) was 7.82 Log10 copy number/gram of lung and the “effect on viral titer” value (RSV A2 virus strain) was “significantly reduce the viral titer in lung tissue”.

In the case of `CC[C@H](C)[C@H](NC(=O)[C@H](CCCCN)NC(=O)[C@H](CCCCN)NC(=O)[C@H](CC(C)C)NC(=O)[C@H](CO)NC(=O)[C@H](CCC(=O)O)NC(=O)[C@H](CCC(=O)O)NC(=O)[C@@H](NC(=O)[C@H](CCCCN)NC(=O)[C@H](CCCCN)NC(=O)[C@H](CC(N)=O)NC(=O)[C@@H](NC(=O)[C@H](CCC(=O)O)NC(=O)[C@H](CCC(=O)O)NC(=O)[C@@H](NC(=O)[C@H](CCCCN)NC(=O)[C@H](CCCCN)NC(=O)[C@H](CC(=O)O)NC(=O)[C@H](Cc1ccccc1)NC(=O)[C@H](CCC(=O)O)NC(=O)[C@H](CC(=O)O)NC(=O)[C@H](Cc1c[nH]c2ccccc12)NC(C)=O)[C@@H](C)CC)C(C)C)[C@@H](C)CC)C(=O)N[C@@H](CCC(=O)O)C(=O)N[C@@H](CCC(=O)O)C(=O)N[C@@H](CO)C(=O)N[C@@H](CC(=O)O)C(=O)N[C@@H](CCCCN)C(=O)N[C@@H](CCCCN)C(=O)N[C@@H](CC(C)C)C(=O)N[C@@H](CCC(=O)O)C(=O)N[C@@H](CCC(=O)O)C(=O)N[C@H](C(=O)N[C@@H](CC(N)=O)C(=O)N[C@@H](C)C(=O)N[C@@H](CCC(=O)O)C(=O)N[C@@H](C)C(=O)N[C@@H](C)C(=O)N[C@@H](C)C(=O)N[C@@H](CCCCN)C(=O)N[C@@H](CCCCNC(=O)CCC(=O)O[C@H]1CC[C@@]2(C)C(=CC[C@H]3[C@@H]4CC[C@H]([C@H](C)CCCC(C)C)[C@@]4(C)CC[C@@H]32)C1)C(N)=O)C(C)C` [Compound 40] (Ac-WDEFDKKIEEVNKKIEESLKKIEESDKKLEEVNAEAAAKK(Succinyl(4-O-cholesteryl))-NH2), the IC50 (RSV A long virus strain) is reported as 11.7 nM, the “Nucleic acid load RT-qPCR detection results Log10 mean (copy number/gram of lung tissue)” value (RSV A2 virus strain) is reported as 7.71 Log10 copy number/gram of lung and the “effect on viral titer” value (RSV A2 virus strain) is reported as “significantly reduce the viral titer in lung tissue”.

Work on `CC[C@H](C)[C@H](NC(=O)[C@H](CCCCN)NC(=O)[C@H](CCC(=O)O)NC(=O)[C@H](CC(C)C)NC(=O)[C@H](CO)NC(=O)[C@H](CCC(N)=O)NC(=O)[C@H](CC(N)=O)NC(=O)[C@@H](NC(=O)[C@H](CCCCN)NC(=O)[C@H](CCC(=O)O)NC(=O)[C@H](CC(N)=O)NC(=O)[C@@H](NC(=O)[C@H](CCC(N)=O)NC(=O)[C@H](CO)NC(=O)[C@H](C)NC(=O)[C@H](CC(=O)O)NC(=O)[C@H](Cc1ccccc1)NC(=O)[C@@H](NC(=O)[C@H](CC(C)C)NC(=O)[C@H](CCC(=O)O)NC(=O)[C@H](CC(=O)O)NC(=O)[C@H](Cc1ccc(O)cc1)NC(C)=O)C(C)C)C(C)C)[C@@H](C)CC)C(=O)N[C@@H](CCCNC(=N)N)C(=O)N[C@@H](CCCCN)C(=O)N[C@@H](CO)C(=O)N[C@@H](CC(=O)O)C(=O)N[C@@H](CCC(=O)O)C(=O)N[C@@H](CC(C)C)C(=O)N[C@@H](CC(C)C)C(=O)N[C@@H](Cc1c[nH]cn1)C(=O)N[C@@H](CC(N)=O)C(=O)N[C@H](C(=O)NCC(=O)N[C@@H](CO)C(=O)NCC(=O)N[C@@H](CO)C(=O)NCC(=O)N[C@@H](CCCCNC(=O)CCC(=O)O[C@H]1CC[C@@]2(C)C(=CC[C@H]3[C@@H]4CC[C@H]([C@H](C)CCCC(C)C)[C@@]4(C)CC[C@@H]32)C1)C(N)=O)C(C)C` [Compound 25] (Ac-YDELVFDASQVNEKINQSLEKIRKSDELLHNVGSGSGK(Succinyl(4-O-cholesteryl))-NH2) yielded an IC50 (RSV A long virus strain) of 28.7 nM.
